Data taken from patent US5243049A, “Certain pyrroloquinolinones: a new class of GABA brain receptor ligands” (Neurogen Corporation, priority 1992, dated 1993).

Biological target: GABAa receptor
Test: Inhibition of 3H-RO15-1788 [3H-Flumazenil] binding to rat cortical tissue (GABAa receptor activity)
Settings: 0.5 nM 3H-RO15-1788, 30 min at 4° C., pH 7.4
Method: The pharmaceutical utility of compounds of this invention are indicated by the following assay for GABAa receptor activity.
Assays are carried out as described in Thomas and Tallman (J. Bio. Chem. 156: 9838-9842, J. Neurosci. 3:433-440, 1983). Rat cortical tissue is dissected and homogenized in 25 volumes (w/v) of 0.05M Tris HCl buffer (pH 7.4 at 4° C.). The tissue homogenate is centrifuged in the cold (4° C.) at 20,000×g for 20 minutes. The supernatant is decanted and the pellet is rehomogenized in the same volume of buffer and again centrifuged at 20,000×g. The supernatant is decanted and the pellet is frozen at -20° C. overnight. The pellet is then thawed and rehomogenized in 25 volume (original wt/vol) of buffer and the procedure is carried out twice. The pellet is finally resuspended in 50 volumes (w/vol of 0.05M Tris HCl buffer (pH 7.4 at 4° C.).
Incubations contain […] of radioligand 0.5 nM (^3 H-RO15-1788 [^3 H-Flumazenil] specific activity 80 Ci/mmol), drug or blocker and buffer to a total volume of […]. Incubations are carried for 30 min at 4° C. then are rapidly filtered through GFB filters to separate free and bound ligand. Filters are washed twice with fresh 0.05M Tris HCl buffer (pH 7.4 at 4° C.) and counted in a liquid scintillation counter. […] diazepam is added to some tubes to determine nonspecific binding. Data are collected in triplicate determinations, averaged and % inhibition of total specific binding is calculated. Total Specific Binding=Total-Nonspecific. In some cases, the amounts of unlabeled drugs is varied and total displacement curves of binding are carried out. Data are converted to a form for the calculation of IC50 and Hill Coefficient (nH).

| Compound | IC50 [nM] |
| --- | --- |
| O=C1c2c(c3ccccc3[nH]c2=O)C(=O)N1c1ccccc1 [Compound 1, 2'-Phenyl-pyrrolo[3,4-c]quinoline-1,3,4(5H)-trione] | 36 |
| COc1ccc(N2C(=O)c3c(c4ccccc4[nH]c3=O)C2=O)cc1 [Compound 2, 2-(4-Methoxyphenyl)-pyrrolo[3,4-c]quinoline-1,3,4(5H)-trione] | 400 |
| O=C1c2c(c3ccccc3[nH]c2=O)C(=O)N1c1ccccc1F [Compound 4, 2-(2-Fluorophenyl)-pyrrolo[3,4-c]quinoline-1,3,4(5H)-trione] | 700 |
| O=C1c2c(c3ccccc3[nH]c2=O)CN1c1ccccc1 [Compound 16, 2-Phenyl-pyrrolo[3,4-c]quinoline-3(1H),4(5H)-dione] | 602 |

Tested on: benzodiazepine binding site / GABA receptor
Test: not given
Settings: brain membranes; cited from earlier work

| Compound | Block of enhancement of benzodiazepine binding by GABA agonists |
| --- | --- |
| CN1CCc2cc3c(cc2[C@H]1[C@@H]1OC(=O)c2c1ccc1c2OCO1)OCO3 [(+) bicuculline] | blocked |
| CN1CCc2cc3c(cc2[C@@H]1[C@H]1OC(=O)c2c1ccc1c2OCO1)OCO3 [(-) bicuculline] | much less active |
